This is an account of results in publication PMC6410164, “Isolation and Structure-Activity Relationship of Subergorgic Acid and Synthesis of Its Derivatives as Antifouling Agent” (Marine Drugs, 2019).

For one series, the system named is barnacle larvae. To be noted: cited from earlier work.
Series [1] concerns B. amphitrite. The experiment in a line: Larval settlement (antifouling) assay with cyprids of the barnacle B. amphitrite. Format: in vivo, Balanus amphitrite. To be noted: Amphibalanus amphitrite, 48 h, read-out: EC50 (μg/mL), inhibition of settlement of B. amphitrite. Here is the method:
The antifouling activity was examined using cyprids of the barnacle B. amphitrite Darwin according to the method reported previously. Briefly, adults of B. amphitrite, collected from the intertidal zone in Hong Kong, were exposed to air for more than 6 h, and were then placed in a container filled with 0.22 µm filtered seawater (FSW) to release nauplii. The collected nauplii were raised to cyprid stage using the method described by Thiyagarajan et al.. Fresh cyprids were used in the test. Larval settlement assays were examined using 24-well polystyrene plates. The tested samples were first dissolved with small amount of dimethyl sulfoxide (DMSO) and then diluted with FSW to achieve final concentrations at 25.0, 12.5, 6.25, 3.13, 1.57, 0.78, 0.39, 0.19, 0.1, and 0.05 µg/mL. About 15−20 competent larvae were added to each well containing 1 mL of test solution in triplicate, and wells containing only FSW, DMSO, and larvae served as a control. The plates were incubated at 25 °C for 48 h. The effects of the test samples against biofouling were determined by examining the plates under a microscope to count settled, unsettled, and swimming larvae, and where appropriate, potential toxic effects were recorded. The number of settled larvae was expressed as a percentage of the total number of larvae per well. Three replicates of each treatment were performed. A concentration-response curve was then made and a trend line was constructed for each compound. EC50 was calculated as the concentration where 50% of the larval individual was inhibited to settle as compared to the control while LC50 was calculated as the concentration where 50% of the larval population was dead. […] For the purposes of this study, adults of the barnacle B. amphitrite were scraped off from the concrete posts at a pier of Pak Sha Wan, Kowloon, Hong Kong (22°21′45″N, 114°15′35″E), where only limited quantity of B. amphitrite could be collected during the period of our experiment because of the relatively hot weather and artificial disturbing of nearby construction work.

The nature of series [2]: Toxicity toward larvae in the settlement assay (LC50). To be noted: Balanus amphitrite (barnacle), cyprid larvae, in vivo, other: immersion of larvae in test solution, B. amphitrite larvae, highest concentration tested 25 μg/mL. The method, then: The antifouling activity was examined using cyprids of the barnacle B. amphitrite Darwin according to the method reported previously. Briefly, adults of B. amphitrite, collected from the intertidal zone in Hong Kong, were exposed to air for more than 6 h, and were then placed in a container filled with 0.22 µm filtered seawater (FSW) to release nauplii. The collected nauplii were raised to cyprid stage using the method described by Thiyagarajan et al.. Fresh cyprids were used in the test. Larval settlement assays were examined using 24-well polystyrene plates. […] About 15−20 competent larvae were added to each well containing 1 mL of test solution in triplicate, and wells containing only FSW, DMSO, and larvae served as a control. The plates were incubated at 25 °C for 48 h. The effects of the test samples against biofouling were determined by examining the plates under a microscope to count settled, unsettled, and swimming larvae, and where appropriate, potential toxic effects were recorded. The number of settled larvae was expressed as a percentage of the total number of larvae per well. Three replicates of each treatment were performed. A concentration-response curve was then made and a trend line was constructed for each compound.

Series [3] deals with naupliar larvae of several barnacles. Set-up: method as in PMID 12031437. Particulars: cited from earlier work.
Series [4] relates to B. amphitrite. Also noted: method as in PMID 18075899. To be noted: reported by Qi et al. ref 21; cited from earlier work.
Series [5] deals with B. amphitrite. Particulars: reported by Qi et al. ref 21; cited from earlier work.
The mark [6] stands for this setting: cyprids, 24-well plates, 25 °C, average of triplicate ± SD, highest concentration 25 μg/mL.

Converted amounts (≈) assume the structure as drawn. Like-named read-outs stand apart in the source and are kept apart here. Where only a bound is given, the exact number is not on record here.

In the case of `Oc1c(Br)cc(Br)cc1Cc1ccc(Br)cc1Br` [2,4-dibromo-6-(2,4-dibromobenzyl)phenol], the EC50 in the series with barnacle larvae (read-out: EC50, settlement inhibition against barnacle larvae) was 1.26 µM.

For `OCc1cc(O)cc(Cl)c1O` [3-chloro-2,5-dihydroxybenzylalcohol], in the series with barnacle larvae, the “EC50, settlement inhibition against barnacle larvae” value was 3.19 to 3.81 µg/mL.

On to `COC(=O)C1=CC2(C)CCC3C(C)CC(=O)C32C1C` (stereo not drawn) [Compound 1], for which, in the series with B. amphitrite [1] (setting [6]), the EC50 was 3.16 ± 0.18 µg/mL (≈ 12 µM). Besides, the LC50 – broadly, the concentration lethal to half of the exposed cells or organisms – at 48 h in series [2] was over 25 µg/mL.

In the case of `COC(=O)C1=CC2(C)CCC3C(C)CC(O)C32C1C` (stereo not drawn) [Compound 2], the EC50 in the series on B. amphitrite [1] (setting [6]) worked out at 10 ± 0.13 µg/mL (≈ 37.9 µM). The LC50 at 48 h in series [2] is over 25 µg/mL.

Consider `CC1CC(O)C23C(C)C(C(=O)O)=CC2(C)CCC13` (stereo not drawn) [Compound 3], for which, in the series with B. amphitrite [1] (setting [6]), the EC50 was over 25 µg/mL. In series [2], this compound registered an LC50 at 48 h of over 25 µg/mL.

`CC1CC(=O)C23C1CCC2(C)C1OC1(C(=O)O)C3C` (stereo not drawn) [Compound 4]: the EC50 in the series on B. amphitrite [1] (setting [6]) was over 25 µg/mL. Besides, the LC50 at 48 h in series [2] was over 25 µg/mL.

Take `O=C1O[C@@H](Cc2ccccc2)C(Cc2ccccc2)=C1Cc1ccccc1` [Maculalactone A]: the “EC50 against naupliar larvae of several barnacles” value in series [3] was 1.1 to 5.2 µg/mL.

For `CC1CC(=O)C23C(C)C(C(=O)O)=CC2(C)CCC13` (stereo not drawn) [SA, subergorgic acid], the EC50 with B. amphitrite [1] turned out to be 1.25 ± 0.14 µg/mL (≈ 5.03 µM). Further, the “EC50, settlement of B. amphitrite” value in the series with B. amphitrite [4] is 1.2 µg/mL. Further, in series [2], the LC50 at 48 h was over 25 µg/mL. Moreover, in the series on B. amphitrite [5], the LC50 was over 200 µg/mL.
